Laboratory results as given in patent publication US11618916B2, “Probe for measuring activity of Caspase-1 and composition for diagnosis of inflammatory diseases containing same” (KOREA INSTITUTE OF SCIENCE AND TECHNOLOGY, priority 2018, dated 2023).

Assays:
[1] = system: inflammation-induced animal model; assay: Detection of inflammation in LPS/ATP inflammation-induced animal model, IVIS Lumina imaging; format: in vivo, C57BL/6 mice
Procedure: The caspase-1 enzyme is activated due to various factors. Among them, the most representative method is to activate inflammasome by administering LPS or ATP which induces early inflammation response. In Test Example 5, it was confirmed using the probe for measuring the activity of caspase-1 of Example 4 that the administration of LPS and ATP induced the activation of inflammasome, which is an early inflammation response. In this test example, an experiment was carried out using an inflammation-induced animal model in order to investigate whether the probe for measuring the activity of caspase-1 of Example 4 works well in vivo, too. In order to establish the inflammation-induced animal model, 8-week-old C57BL/6 mice acquired from Nara Bio were accustomed for a week and then reared in animal plastic cages, with 4 mice per cage. The cage was controlled with artificial lighting for 12 hours from 7 am to […], indoor temperature of 18-23° C. and 40-60% humidity. Clean water and feed were given freely. Then, physiological saline (control group), 20 μg of LPS and 50 mM ATP (Ms1 test group) or 20 μg of LPS and 100 mM ATP (Ms2 test group) was injected into the left sole of the experimental animal. After intravenously injecting the probe for measuring the activity of caspase-1 prepared in Example 4 with 3-day intervals, the respective groups were imaged with IVIS Lumina with 30-minute intervals.

[2] = system: colitis animal model (DSS); assay: Imaging of DSS colitis animal model; format: in vivo, C57BL/6 mice; settings: DSS vs normal
Procedure: In order to establish a colitis animal model, 8-week-old C57BL/6 mice acquired from Nara Bio were accustomed for a week and then reared in animal plastic cages, with 4 mice per cage. The cage was controlled with artificial lighting for 12 hours from 7 am to 7 pm, indoor temperature of 18-23° C. and 40-60% humidity. Clean water and feed were given freely. Colitis was induced by providing the experimental animal with drinking water containing 3% dextran sodium sulfate (DSS). […] Because the body weight of the colitis animal model decreases proportionally to the progress of the disease, the probe for measuring the activity of caspase-1 of Example 4 was administered on day 6, when the body weight was decreased to 80%, for imaging. As a control group (normal), a non-colitis-induced group was prepared by providing normal drinking water to the experimental animal.

Alzheimer's animal model = assay: Imaging of Alzheimer's animal model; format: in vivo, B6SJL-Tg (APPSwFILon, PSEN1*M146L*L286V)6799Vas/Mmjax) mice
Procedure: In order to establish an Alzheimer's animal model, 3- to 6-month-old B6SJL-Tg (APPSwFILon, PSEN1*M146L*L286V)6799Vas/Mmjax) mice acquired from the […] (Bar Harbor, USA) were accustomed for a week and then reared in animal plastic cages, with 4 mice per cage. The cage was controlled with artificial lighting for 12 hours from 7 am to 7 pm, indoor temperature of 18-23° C. and 40-60% humidity. Clean water and feed were given freely. An Alzheimer's animal model was induced through genetic APP mutation. Amyloid beta, which is the cause of dementia, is accumulated from 3 months later and form aggregates 4 months later. […] A control group (pre) was not subjected to the genetic mutation.

caspase-1 enzyme [3] = target: T1, caspase-1 enzyme (Homo sapiens, UniProt P29466); assay: Fluorescence restoration depending on caspase-1 enzyme concentration; format: biochemical; settings: FIG. 3B
T1 sequence (P29466 120-297 limits assumed): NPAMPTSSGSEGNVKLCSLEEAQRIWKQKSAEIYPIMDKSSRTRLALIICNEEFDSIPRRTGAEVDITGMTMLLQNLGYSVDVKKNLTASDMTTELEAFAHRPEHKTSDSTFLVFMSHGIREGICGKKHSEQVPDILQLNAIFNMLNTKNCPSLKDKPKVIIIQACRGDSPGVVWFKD
T1 sequence (P29466 317-404 limits assumed): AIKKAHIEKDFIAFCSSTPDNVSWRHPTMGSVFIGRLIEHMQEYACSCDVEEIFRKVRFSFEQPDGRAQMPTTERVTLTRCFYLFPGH
Procedure: In order to investigate the fluorescence of the probe for measuring the activity of caspase-1 prepared in Example 4 depending on the concentration of the caspase-1 enzyme, the change in fluorescence with time was analyzed and evaluated using the caspase-1 enzyme at various concentrations (0, 2.5, 5, 7.5 and 10 units).
First, the caspase enzyme of various concentrations (0, 2.5, 5, 7.5 and 10 units) was dissolved in a reaction buffer (0.5 mM HEPES, pH 7.2, 50 mM calcium chloride, 0.1% CHAPS, 10 mM EDTA, 5% glycerol, 10 mM DTT) and incubated at 37° C. for 1 hour. After transferring 200 μL of the caspase enzyme activated through the procedure to each well of a 96-well plate and then incubating with the probe for measuring the activity of caspase-1 of Example 4 at 37° C., the restoration of fluorescence with time was observed by fluorescence spectroscopy.
The fluorescence image for each reaction solution is shown at the bottom of FIG. 3B.

caspase-1 enzyme [4] = target: T1, caspase-1 enzyme; assay: Specific activity of probe: fluorescence restoration with caspase enzymes (caspase-1, 3, 8, 11) or caspase-1 inhibitor; format: biochemical; settings: caspase-1, 3, 8, 11 at 2 units or caspase-1 inhibitor; 37° C.; FIG. 3A
Procedure: In order to investigate whether the probe for measuring the activity of caspase-1 prepared in Example 4 is specifically cleaved by the caspase-1 enzyme and restores fluorescence, the change in fluorescence with time was analyzed and evaluated using various caspase enzymes (caspase-1, 3, 8 and 11) and a caspase-1 inhibitor.
First, a caspase enzyme or a caspase-1 inhibitor was dissolved in a reaction buffer (0.5 mM HEPES, pH 7.2, 50 mM calcium chloride, 0.1% CHAPS, 10 mM EDTA, 5% glycerol, 10 mM DTT) and then incubated at 37° C. for 1 hour. All the enzymes were used at the same concentration of 2 units. After transferring 200 μL of the caspase enzyme activated through the procedure to each well of a 96-well plate and then incubating with the probe for measuring the activity of caspase-1 of Example 4 at 37° C., the restoration of fluorescence with time was observed by fluorescence spectroscopy.
The photographs at the bottom of FIG. 3A show the fluorescence images of the respective reaction solutions. (+)Cas-1 was treated with the caspase-1 enzyme, (+)cas-1 inhibitor was treated with the caspase-1 inhibitor, (+)cas-3 was treated with the caspase-3 enzyme, (+)cas-8 was treated with the caspase-8 enzyme, and (+)cas-11 was treated with the caspase-11 enzyme.

THP-1 monocytes = assay: Fluorescence restoration in LPS/ATP-treated cells, fluorescence microscope; format: cell-based; settings: THP-1 treated with 1.5 μg/mL LPS and 5 mM ATP, probe 3.5 hours later; vs control without LPS/ATP; FIG. 4B
Procedure: THP-1 monocytes were placed on a 96-well plate and treated with 1.5 μg/mL LPS and 5 mM ATP one day later. 3.5 hours later, the probe for measuring the activity of caspase-1 prepared in Example 4 was administered. Then, after culturing for 24 hours, fluorescence restoration by the probe for measuring the activity of caspase-1 in the cells was analyzed with a fluorescence microscope.
Control was treated with neither LPS nor ATP.
LPS and ATP are known to activate caspase-1. LPS is a primary signal occurring in the early stage of inflammation and ATP is a secondary signal. […] That is to say, it was confirmed that the probe for measuring the activity of caspase-1 of the present disclosure can accurately measure caspase-1 activated by inflammation response.

[5] = system: T2, probe for measuring the activity of caspase-1 prepared in Example 4
T2 sequence: GWEHDGK

CCN(CC)c1ccc2nc3ccc(/N=N/c4ccc(N(C)CCCC(=O)NCCCCC(NC(=O)CNC(=O)[C@H](CC(=O)O)NC(=O)[C@H](Cc5c[nH]cn5)NC(=O)[C@H](CCC(=O)O)NC(=O)[C@H](Cc5c[nH]c6ccccc56)NC(=O)CNC(=O)CCCCCCCN5/C(=C/C=C/C=C/C6=[N+](CC)c7ccc8c(S(=O)(=O)O)cc(S(=O)(=O)O)cc8c7C6(C)C)C(C)(C)c6c5ccc5c(S(=O)(=O)O)cc(S(=O)(=O)O)cc65)C(=O)O)cc4)cc3[n+](-c3ccccc3)c2c1 (stereo partly shown) [Example 4]
in-vivo fluorescence depending on the concentration of inflammation-inducing substances (images) ([1]; LPS/ATP into left sole (Ms1: 20 μg LPS + 50 mM ATP; Ms2: 20 μg LPS + 100 mM ATP), probe intravenously, FIG. 5A): the fluorescence was restored better | quantified fluorescence from the top of the left foot and the left calf ([1]; control, Ms1 and Ms2 test groups, FIG. 5B): exhibits stronger fluorescence | fluorescence from the groin, ham and lymph node ([1]; control, Ms1 and Ms2 test groups, FIG. 5C): The strongest fluorescence was observed in the ham lymph node closest to the sole | fluorescence from the extracted large intestine ([2]; FIG. 6D): Strong red fluorescence was observed in the large intestine extracted from the colitis animal model | Cy5.5 fluorescence in isolated colon cells (fluorescence microscope, NLRP3 inflammasome co-staining) ([2]; FIG. 6F): only in the colon cells isolated from the colitis animal model | whole-body fluorescence images after intravenous injection ([2]; day 6, 30-minute intervals, FIG. 6C): red fluorescence was observed clearly in the colitis animal model | fluorescence images 90 minutes after intravenous injection (Alzheimer's animal model; Alzheimer's animal models of 3-6 months vs control (pre), FIG. 7A): the fluorescence could be observed in the Alzheimer's animal model from 3 months | co-localisation of probe fluorescence with caspase-1 antibody staining in brain tissue (Alzheimer's animal model; model of 3 months (TG), 3 hours after probe, FIG. 7E): corresponds exactly to the region immunologically stained with the caspase-1 antibody | fluorescence from the brain (Alzheimer's animal model; models of 3, 4, 5 and 6 months, FIG. 7B): fluorescence was observed in the brain of the Alzheimer's animal model from 4 months | fluorescence in quadrisected brain (fluorescence microscope) (Alzheimer's animal model; models of 3-6 months, FIG. 7D): the fluorescence was observed clearly in the hippocampal region of the brain | quantified fluorescence intensity from the brain (Alzheimer's animal model; vs control group (WT), FIG. 7C): significant fluorescence intensity began to be observed starting from the Alzheimer's animal model of 4 months | concentration limit of the caspase-1 enzyme that could be measured (caspase-1 enzyme [3]): 7.5 units | change in fluorescence intensity with caspase-1 enzyme concentration (caspase-1 enzyme [3]; caspase-1 at 0, 2.5, 5, 7.5 and 10 units, 37° C.): increase in fluorescence intensity as the concentration of the caspase-1 enzyme increases | restoration of fluorescence with time (photoluminescence), specificity among caspase enzymes (caspase-1 enzyme [4]): restores fluorescence specifically only in the presence of caspase-1 at all times | fluorescence restoration in cells (THP-1 monocytes): the fluorescence of Cy5.5 was restored effectively as compared to the control group

caspase-1 enzyme
restoration of fluorescence with time by photoluminescence (PL) after cleavage of the probe [5]: restores fluorescence specifically only in the presence of caspase-1 at all times

caspase-3 enzyme
restoration of fluorescence with time by photoluminescence (PL) after cleavage of the probe [5]: restores fluorescence specifically only in the presence of caspase-1 at all times

caspase-8 enzyme
restoration of fluorescence with time by photoluminescence (PL) after cleavage of the probe [5]: restores fluorescence specifically only in the presence of caspase-1 at all times

caspase-11 enzyme
restoration of fluorescence with time by photoluminescence (PL) after cleavage of the probe [5]: restores fluorescence specifically only in the presence of caspase-1 at all times
